Organism: Rattus norvegicus
Experiment: Open TG-GATES - Regimen: Daily Repeat
Format: toxicity, organism-based, Sprague-Dawley
Parameters: regimen Daily Repeat, gender Male, age 6 weeks
Conditions: in vivo, po, 0 mg/kg, route gavage, dose level Control; for APTT / Bas / Eos / Fbg / Hb / Ht / Lym / MCH / MCHC / MCV / Mono / Neu / PT / Plat / RBC / Ret / WBC: tissue Blood; for KIDNEY_L / KIDNEY_R / KIDNEY_TOTAL: tissue Kidney; for LIVER: tissue Liver; for A/G / ALP / ALT / AST / BUN / CRE / Ca / Cl / DBIL / GLC / IP / K / LDH / Na / PL / RALB / TBIL / TC / TG / TP / gamma-GTP: tissue Plasma

Structure (SMILES): OCCOCCN1CCN(C(c2ccccc2)c2ccc(Cl)cc2)CC1 (configuration not stated) [HYDROXYZINE]
- TERMINAL_BW (72 h, time 3 day): 230.9 g
- APTT (72 h, time 3 day): 15.5 s
- Bas (72 h, time 3 day): 0%
- Eos (72 h, time 3 day): 1%
- Fbg (72 h, time 3 day): 263.6 mg/dL
- Hb (72 h, time 3 day): 12.9 g/dL
- Ht (72 h, time 3 day): 39%
- Lym (72 h, time 3 day): 74.6%
- MCH (72 h, time 3 day): 21.1 pg
- MCHC (72 h, time 3 day): 33.1%
- MCV (72 h, time 3 day): 63.9 fL
- Mono (72 h, time 3 day): 3.2%
- Neu (72 h, time 3 day): 20.6%
- PT (72 h, time 3 day): 15.7 s
- Plat (72 h, time 3 day): 117.4 x10_4/uL
- RBC (72 h, time 3 day): 610.4 x10_4/ul
- Ret (72 h, time 3 day): 7.5%
- WBC (72 h, time 3 day): 77.5 x10_2/uL
- KIDNEY_L (72 h, time 3 day): 1 g
- KIDNEY_R (72 h, time 3 day): 1 g
- KIDNEY_TOTAL (72 h, time 3 day): 1.9 g
- LIVER (72 h, time 3 day): 11.1 g
- A/G (72 h, time 3 day): 0.9
- ALP (72 h, time 3 day): 1652.8 IU/L
- ALT (72 h, time 3 day): 46.2 IU/L
- AST (72 h, time 3 day): 68.8 IU/L
- BUN (72 h, time 3 day): 16.2 mg/dL
- CRE (72 h, time 3 day): 0.2 mg/dL
- Ca (72 h, time 3 day): 10.9 mg/dL
- Cl (72 h, time 3 day): 105.8 meq/L
- DBIL (72 h, time 3 day): 0.012 mg/dL
- GLC (72 h, time 3 day): 186.8 mg/dL
- IP (72 h, time 3 day): 8.1 mg/dL
- K (72 h, time 3 day): 4 meq/L
- LDH (72 h, time 3 day): 91.8 IU/L
- Na (72 h, time 3 day): 143.2 meq/L
- PL (72 h, time 3 day): 148.4 mg/dL
- RALB (72 h, time 3 day): 2.7 g/dL
- TBIL (72 h, time 3 day): 0.052 mg/dL
- TC (72 h, time 3 day): 73 mg/dL
- TG (72 h, time 3 day): 90 mg/dL
- TP (72 h, time 3 day): 5.7 g/dL
- gamma-GTP (72 h, time 3 day): 0.8 IU/L
- TERMINAL_BW ([…], time 7 day): 263.6 g
- TERMINAL_BW ([…], time 14 day): 336.5 g
- TERMINAL_BW ([…], time 28 day): 390.2 g
- APTT ([…], time 7 day): 16.8 s
- Bas ([…], time 7 day): 0%
- Eos ([…], time 7 day): 1%
- Fbg ([…], time 7 day): 282.2 mg/dL
- Hb ([…], time 7 day): 13.6 g/dL
- Ht ([…], time 7 day): 40.9%
- Lym ([…], time 7 day): 79.2%
- MCH ([…], time 7 day): 21.3 pg
- MCHC ([…], time 7 day): 33.3%
- MCV ([…], time 7 day): 63.9 fL
- Mono ([…], time 7 day): 2.4%
- Neu ([…], time 7 day): 16.4%
- PT ([…], time 7 day): 15.4 s
- Plat ([…], time 7 day): 113.3 x10_4/uL
- RBC ([…], time 7 day): 639.4 x10_4/ul
- Ret ([…], time 7 day): 6.1%
- WBC ([…], time 7 day): 82.1 x10_2/uL
- APTT ([…], time 14 day): 16.9 s
- Bas ([…], time 14 day): 0%
- Eos ([…], time 14 day): 1%
- Fbg ([…], time 14 day): 292 mg/dL
- Hb ([…], time 14 day): 14.1 g/dL
- Ht ([…], time 14 day): 41.5%
- Lym ([…], time 14 day): 75.4%
- MCH ([…], time 14 day): 20.7 pg
- MCHC ([…], time 14 day): 34%
- MCV ([…], time 14 day): 60.9 fL
- Mono ([…], time 14 day): 2.8%
- Neu ([…], time 14 day): 20.2%
- PT ([…], time 14 day): 15.5 s
- Plat ([…], time 14 day): 116.6 x10_4/uL
- RBC ([…], time 14 day): 682.2 x10_4/ul
- Ret ([…], time 14 day): 4.8%
- WBC ([…], time 14 day): 105.1 x10_2/uL
- APTT ([…], time 28 day): 26.6 s
- Bas ([…], time 28 day): 0.2%
- Eos ([…], time 28 day): 1.2%
- Fbg ([…], time 28 day): 295.8 mg/dL
- Hb ([…], time 28 day): 15.1 g/dL
- Ht ([…], time 28 day): 43.4%
- Lym ([…], time 28 day): 79.6%
- MCH ([…], time 28 day): 19.7 pg
- MCHC ([…], time 28 day): 34.7%
- MCV ([…], time 28 day): 56.7 fL
- Mono ([…], time 28 day): 2%
- Neu ([…], time 28 day): 16.4%
- PT ([…], time 28 day): 15.9 s
- Plat ([…], time 28 day): 105.6 x10_4/uL
- RBC ([…], time 28 day): 766.4 x10_4/ul
- Ret ([…], time 28 day): 2.4%
- WBC ([…], time 28 day): 99.9 x10_2/uL
- KIDNEY_L ([…], time 7 day): 1.1 g
- KIDNEY_R ([…], time 7 day): 1.1 g
- KIDNEY_TOTAL ([…], time 7 day): 2.3 g
- KIDNEY_L ([…], time 14 day): 1.3 g
- KIDNEY_R ([…], time 14 day): 1.3 g
- KIDNEY_TOTAL ([…], time 14 day): 2.7 g
- KIDNEY_L ([…], time 28 day): 1.4 g
- KIDNEY_R ([…], time 28 day): 1.3 g
- KIDNEY_TOTAL ([…], time 28 day): 2.8 g
- LIVER ([…], time 7 day): 12.4 g
- LIVER ([…], time 14 day): 15.4 g
- LIVER ([…], time 28 day): 16.2 g
- A/G ([…], time 7 day): 0.8
- ALP ([…], time 7 day): 1624.6 IU/L
- ALT ([…], time 7 day): 41.6 IU/L
- AST ([…], time 7 day): 68.4 IU/L
- BUN ([…], time 7 day): 16.6 mg/dL
- CRE ([…], time 7 day): 0.2 mg/dL
- Ca ([…], time 7 day): 11 mg/dL
- Cl ([…], time 7 day): 105.2 meq/L
- DBIL ([…], time 7 day): 0.016 mg/dL
- GLC ([…], time 7 day): 193 mg/dL
- IP ([…], time 7 day): 8 mg/dL
- K ([…], time 7 day): 4 meq/L
- LDH ([…], time 7 day): 68.4 IU/L
- Na ([…], time 7 day): 143.2 meq/L
- PL ([…], time 7 day): 166.6 mg/dL
- RALB ([…], time 7 day): 2.7 g/dL
- TBIL ([…], time 7 day): 0.054 mg/dL
- TC ([…], time 7 day): 84 mg/dL
- TG ([…], time 7 day): 103 mg/dL
- TP ([…], time 7 day): 5.8 g/dL
- gamma-GTP ([…], time 7 day): 0.8 IU/L
- A/G ([…], time 14 day): 0.8
- ALP ([…], time 14 day): 1450 IU/L
- ALT ([…], time 14 day): 40.6 IU/L
- AST ([…], time 14 day): 62.6 IU/L
- BUN ([…], time 14 day): 16.2 mg/dL
- CRE ([…], time 14 day): 0.2 mg/dL
- Ca ([…], time 14 day): 10.6 mg/dL
- Cl ([…], time 14 day): 103.8 meq/L
- DBIL ([…], time 14 day): 0.02 mg/dL
- GLC ([…], time 14 day): 190.2 mg/dL
- IP ([…], time 14 day): 7.4 mg/dL
- K ([…], time 14 day): 4 meq/L
- LDH ([…], time 14 day): 94.6 IU/L
- Na ([…], time 14 day): 141.8 meq/L
- PL ([…], time 14 day): 151.2 mg/dL
- RALB ([…], time 14 day): 2.7 g/dL
- TBIL ([…], time 14 day): 0.056 mg/dL
- TC ([…], time 14 day): 73 mg/dL
- TG ([…], time 14 day): 126.4 mg/dL
- TP ([…], time 14 day): 6.1 g/dL
- gamma-GTP ([…], time 14 day): 0.6 IU/L
- A/G ([…], time 28 day): 0.8
- ALP ([…], time 28 day): 992.6 IU/L
- ALT ([…], time 28 day): 36 IU/L
- AST ([…], time 28 day): 61.2 IU/L
- BUN ([…], time 28 day): 16.8 mg/dL
- CRE ([…], time 28 day): 0.2 mg/dL
- Ca ([…], time 28 day): 10.6 mg/dL
- Cl ([…], time 28 day): 106 meq/L
- DBIL ([…], time 28 day): 0.016 mg/dL
- GLC ([…], time 28 day): 186.6 mg/dL
- IP ([…], time 28 day): 6.6 mg/dL
- K ([…], time 28 day): 4.1 meq/L
- LDH ([…], time 28 day): 118.8 IU/L
- Na ([…], time 28 day): 142.8 meq/L
- PL ([…], time 28 day): 149.2 mg/dL
- RALB ([…], time 28 day): 2.8 g/dL
- TBIL ([…], time 28 day): 0.052 mg/dL
- TC ([…], time 28 day): 68.2 mg/dL
- TG ([…], time 28 day): 161.2 mg/dL
- TP ([…], time 28 day): 6.3 g/dL
- gamma-GTP ([…], time 28 day): 0.4 IU/L

Reference: ChEMBL document CHEMBL3885861, “Open TG-GATES”
